The results in this text go back to article PMC3830123 (Biomolecules & Therapeutics, 2013).

What all share (format): biochemical
The target in assay [1] is T1, dopamine β-hydroxylase (DBH) (Homo sapiens, UniProt P09172).
T1 sequence (P09172 1-617): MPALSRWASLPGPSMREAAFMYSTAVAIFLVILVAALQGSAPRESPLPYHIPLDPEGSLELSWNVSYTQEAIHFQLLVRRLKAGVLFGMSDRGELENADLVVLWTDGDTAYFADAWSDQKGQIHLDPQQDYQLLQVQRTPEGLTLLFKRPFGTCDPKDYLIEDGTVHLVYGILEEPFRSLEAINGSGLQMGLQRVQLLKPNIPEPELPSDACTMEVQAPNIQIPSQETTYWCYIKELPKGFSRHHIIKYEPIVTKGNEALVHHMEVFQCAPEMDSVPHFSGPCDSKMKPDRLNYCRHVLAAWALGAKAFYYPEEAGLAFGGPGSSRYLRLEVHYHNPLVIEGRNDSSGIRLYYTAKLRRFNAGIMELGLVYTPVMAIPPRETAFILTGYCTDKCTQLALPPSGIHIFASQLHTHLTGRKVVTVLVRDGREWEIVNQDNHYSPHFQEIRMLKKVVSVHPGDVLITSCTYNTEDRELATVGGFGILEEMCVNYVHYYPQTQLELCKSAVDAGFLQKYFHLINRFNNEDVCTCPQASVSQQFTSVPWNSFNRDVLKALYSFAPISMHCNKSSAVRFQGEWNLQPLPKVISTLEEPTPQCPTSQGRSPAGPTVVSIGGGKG
The experiment in a line: DBH assay in vitro, tyramine as substrate.

Assay [2] has as its target T2, Rat liver mitochondrial MAO (MAO-B) (Rattus norvegicus, UniProt P19643).
T2 sequence (P19643 1-520): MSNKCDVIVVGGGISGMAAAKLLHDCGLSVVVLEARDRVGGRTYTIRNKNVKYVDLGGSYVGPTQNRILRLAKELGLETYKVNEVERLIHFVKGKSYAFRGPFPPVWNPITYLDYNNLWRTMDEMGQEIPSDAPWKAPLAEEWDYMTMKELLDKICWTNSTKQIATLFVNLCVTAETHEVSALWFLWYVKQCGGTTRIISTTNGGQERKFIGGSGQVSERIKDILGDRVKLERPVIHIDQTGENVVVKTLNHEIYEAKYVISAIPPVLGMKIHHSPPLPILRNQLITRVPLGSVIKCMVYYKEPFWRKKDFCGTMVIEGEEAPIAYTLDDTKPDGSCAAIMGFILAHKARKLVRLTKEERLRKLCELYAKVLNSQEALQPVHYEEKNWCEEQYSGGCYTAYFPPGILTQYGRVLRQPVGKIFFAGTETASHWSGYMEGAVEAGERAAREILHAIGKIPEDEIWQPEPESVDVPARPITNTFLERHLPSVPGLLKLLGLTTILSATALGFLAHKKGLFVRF
The experiment in a line: MAO-B assay in vitro, benzylamine as substrate. The following applies: IC50 values MAO-B, isolated compounds, Table 2.

The target in assay [3] is T3, Rat brain mitochondrial MAO (MAO-A) (Rattus norvegicus, UniProt P21396).
T3 sequence (P21396 1-526): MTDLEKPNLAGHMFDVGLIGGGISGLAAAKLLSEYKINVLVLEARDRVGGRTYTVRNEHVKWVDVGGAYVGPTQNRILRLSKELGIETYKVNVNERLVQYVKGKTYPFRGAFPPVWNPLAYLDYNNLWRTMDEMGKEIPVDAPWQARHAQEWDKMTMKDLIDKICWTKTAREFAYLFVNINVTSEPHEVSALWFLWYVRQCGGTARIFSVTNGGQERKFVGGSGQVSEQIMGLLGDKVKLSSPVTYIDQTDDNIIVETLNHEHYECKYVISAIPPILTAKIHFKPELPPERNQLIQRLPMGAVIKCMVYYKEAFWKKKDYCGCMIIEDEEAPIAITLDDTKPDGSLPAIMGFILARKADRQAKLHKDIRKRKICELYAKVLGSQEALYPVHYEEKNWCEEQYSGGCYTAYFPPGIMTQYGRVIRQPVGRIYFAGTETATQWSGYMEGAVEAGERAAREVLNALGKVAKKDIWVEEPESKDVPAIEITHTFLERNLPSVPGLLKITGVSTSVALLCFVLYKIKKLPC
Description: MAO-A assay in vitro, serotonin as substrate.

Each structure is given as a SMILES string.

Consider `CC(C)=CCC/C(C)=C/Cc1c(O)ccc(C(=O)/C=C/c2ccc(O)cc2)c1O` [Xanthoangelol], for which the IC50 (usually the concentration needed to halve the response being measured) in assay [1] was 516 µM; in assay [2] it was 43.9 µM; in assay [3], 43.4 µM.
